IC50 data for 53 compounds are collected here from PubChem BioAssay AID504352 (Southern Research Specialized Biocontainment Screening …, 2011).

One may read the IC50 as the midpoint of a concentration-inhibition curve.

SMILES strings stand for the structures. Active and inactive are the calls of the source.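 The calls were made as follows: active = compounds cutting HIV-1 replication by at least half at any tested dose; inactive = the rest.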 Some results are limits rather than exact numbers.

This experiment has as its system MAGI-CCR5 cells, HIV-1 BaL, beta-gal luminescence, 48 h. The experiment is described as follows: R5 HIV-1 replication inhibitors in MAGI cells, MAGI-CCR5 cells, beta-gal luminescence, 2% serum, set 3 (AID 504352).

As to `Cc1c2c(=O)n(-c3nc4ccccc4s3)nc-2cc(O)n1Cc1ccncc1`, the IC50 is 4.4 µM. Consider `Cc1c2c(=O)n(-c3nc4ccccc4s3)nc-2cc(O)n1Cc1cccs1`, for which the 50% inhibitory concentration (IC50) is 2.27 µM.

For `CS(=O)(=O)C1=NSC2=NC(=O)/C(=C\c3cccn3-c3ccc(Cl)cc3)C(=N)N21`, the IC50 is 41.7 µM. Turning to `O=C(O)CCCN1C(=O)/C(=C\c2ccc(-c3ccc(Br)cc3)o2)SC1=S`, the IC50 is > 100 µM (inactive). With `Cc1c2c(=O)n(-c3nc4ccccc4s3)nc-2cc(O)n1CCC(C)C` the figure was 2.16 µM; with `COc1ccc(CCn2c(O)cc3nn(-c4nc5ccccc5s4)c(=O)c-3c2C)cc1`, 13.4 µM. `COc1cccc(C2C(C(=O)Nc3ccccc3)=C(C)N=c3sc(=Cc4ccc(OCC(=O)O)cc4)c(=O)n32)c1` (stereo not drawn): the IC50 was 55.4 µM. In the case of `Cc1c2c(=O)n(-c3nc4ccccc4s3)nc-2cc(O)n1Cc1ccccc1Cl`, the IC50 is 3.68 µM. With `Cc1c2c(=O)n(-c3nc4ccccc4s3)nc-2cc(O)n1CCc1ccc(O)cc1` the figure was 2.83 µM.

Turning to `COc1ccccc1Cn1c(O)cc2nn(-c3nc4ccccc4s3)c(=O)c-2c1C`, the IC50 was 1.9 µM. On to `CS(=O)(=O)C1=NSC2=NC(=O)/C(=C\c3cccn3-c3cc(Cl)cc(Cl)c3)C(=N)N21`, for which the IC50 was 33.7 µM. For the compound `O=C(O)CCCN1C(=O)/C(=C/c2ccc(-c3ccc(Cl)c(Cl)c3)o2)SC1=S`, the IC50 was 27.4 µM.

As for `CCOC(=O)C1=C(C)N=c2sc(=Cc3ccc(OCC(=O)O)cc3)c(=O)n2C1c1ccc(OC)cc1OC` (stereo not drawn), the half-maximal inhibitory concentration (IC50) is 44.7 µM. As for `CCOC(=O)C1=C(C)N=c2sc(=Cc3ccc(OCC(=O)O)cc3)c(=O)n2C1c1ccccc1OC` (stereo not drawn), the concentration for half-maximal inhibition (IC50) was 45.1 µM. Regarding `O=C(O)CCCN1C(=O)/C(=C/c2cc3ccccc3o2)SC1=S`, the IC50 is 7.55 µM. As to `CC1=C(C(=O)OC(C)C)C(c2ccc(Cl)cc2)n2c(s/c(=C\c3ccc(OCC(=O)O)cc3)c2=O)=N1` (stereo not drawn), the IC50 was > 100 µM (inactive). In the case of `COc1cccc(-n2cccc2/C=C2/C(=N)N3C(=NC2=O)SN=C3S(C)(=O)=O)c1`, the IC50 was 37 µM.

`CS(=O)(=O)C1=NSC2=NC(=O)/C(=C\c3cccn3-c3cccc(Cl)c3)C(=N)N21`: the IC50 is 52.1 µM. As to `CCc1ccc(-n2cccc2/C=C2/C(=N)N3C(=NC2=O)SN=C3S(C)(=O)=O)cc1`, the half-inhibitory concentration (IC50) was 36.2 µM. As for `Cc1ccc(-n2cccc2/C=C2/C(=N)N3C(=NC2=O)SN=C3S(C)(=O)=O)cc1`, the IC50 is 35.1 µM. On to `CS(=O)(=O)C1=NSC2=NC(=O)/C(=C\c3cccn3-c3ccc(F)cc3)C(=N)N21`, for which the IC50 was 35.1 µM. Next, `CCOC(=O)C1=C(c2ccccc2)N=c2s/c(=C\c3ccc(OCC(=O)O)cc3)c(=O)n2C1c1cccc(OC)c1` (stereo not drawn): 6.6 µM; `Nc1sc2ccccc2[n+]1Cc1ccc(C(=O)O)cc1`: > 100 µM (inactive); `O=C(O)c1ccc(C2Nc3ccc(S(=O)(=O)Nc4cc(Cl)ccc4Cl)cc3C3C=CCC32)cc1` (stereo not drawn): 1.68 µM. In the case of `COc1ccc(-n2cccc2/C=C2/C(=N)N3C(=NC2=O)SN=C3S(C)(=O)=O)cc1Cl`, the IC50 is 32.1 µM. As to `Cc1c2c(=O)n(-c3nc4ccccc4s3)nc-2cc(O)n1C1CC1`, the 50% inhibitory concentration (IC50) was 0.56 µM. Next, `CS(=O)(=O)C1=NSC2=NC(=O)/C(=C\c3cccn3-c3cccc(C(F)(F)F)c3)C(=N)N21`: 47.3 µM; `O=C(O)c1ccc(C[n+]2c(-c3ccccc3)csc2Nc2ccccc2)cc1`: 49.5 µM; `CCOC(=O)C1=C(C)N=c2sc(=Cc3ccc(OCC(=O)O)cc3)c(=O)n2C1c1ccccc1` (stereo not drawn): 43.6 µM. With `CCc1ccc(-c2ccc(/C=C3\SC(=S)N(CCCC(=O)O)C3=O)o2)cc1` the figure was 3.43 µM; with `O=C(O)CCC(C(=O)O)N1C(=O)/C(=C\c2ccco2)SC1=S` (stereo not drawn), > 100 µM (inactive).

For the compound `CCOC(=O)C1=C(C)N=c2sc(=Cc3ccc(OCC(=O)O)cc3)c(=O)n2C1c1cc(OC)c(OC)c(OC)c1` (stereo not drawn), the IC50 is > 100 µM (inactive).

`O=C(O)c1ccc(C[n+]2c(-c3ccc([N+](=O)[O-])cc3)csc2Nc2ccccc2)cc1`: the IC50 was 15 µM. As for `Cc1ccc(-n2cccc2/C=C2/C(=N)N3C(=NC2=O)SN=C3S(C)(=O)=O)cc1C`, the IC50 was 36.1 µM. On to `O=C(O)CCCN1C(=O)/C(=C\c2ccc(-c3ccc(F)cc3)o2)SC1=S`, for which the half-maximal inhibitory concentration (IC50) is 37 µM. As to `COc1ccc(Cn2c(O)cc3nn(-c4nc5ccccc5s4)c(=O)c-3c2C)cc1`, the IC50 is 4.1 µM.

On to `CCOC(=O)C1=C(C)N=c2s/c(=C\c3ccc(OCC(=O)O)cc3)c(=O)n2C1c1ccc(Cl)cc1` (stereo not drawn), for which the half-maximal inhibitory concentration (IC50) is 38.1 µM.

`O=C(O)CCCN1C(=O)/C(=C\c2ccc(-c3cccc(Cl)c3)o2)SC1=S`: the half-inhibitory concentration (IC50) is 15.2 µM. Turning to `Cc1c2c(=O)n(-c3nc4ccccc4s3)nc-2cc(O)n1Cc1cccnc1`, the IC50 was 1.95 µM. Consider `CCOC(=O)C1=C(C)N=c2s/c(=C\c3ccc(OCC(=O)O)cc3)c(=O)n2C1c1ccc(OC)c(OCC)c1` (stereo not drawn), for which the concentration for half-maximal inhibition (IC50) is 33.6 µM. Next, `O=C(O)CCCN1C(=O)/C(=C\c2ccc(-c3ccc(Cl)cc3)o2)SC1=S`: 2.88 µM; `O=C(O)CCCN1C(=O)/C(=C/c2ccc(-c3cccc(C(F)(F)F)c3)o2)SC1=S`: 32.4 µM; `O=C(O)c1ccc([C@@H]2Nc3ccc(S(=O)(=O)Nc4cccc5ccccc45)cc3[C@@H]3C=CC[C@@H]32)cc1`: 3.71 µM. As to `CCOc1ccc(-n2cccc2/C=C2/C(=N)N3C(=NC2=O)SN=C3S(C)(=O)=O)cc1`, the IC50 was 24.3 µM.

As for `COc1ccc(-c2ccc(/C=C3\SC(=S)N(CCCC(=O)O)C3=O)o2)cc1`, the half-inhibitory concentration (IC50) is 56.5 µM. On to `Cc1ccc(-c2ccc(/C=C3\SC(=S)N(CCCC(=O)O)C3=O)o2)cc1`, for which the IC50 was 10.9 µM. With `COc1ccccc1NS(=O)(=O)c1ccc2c(c1)C1C=CCC1C(c1ccc(C(=O)O)cc1)N2` (stereo not drawn) the figure was 2.87 µM.

For the compound `Cc1c2c(=O)n(-c3nc4ccccc4s3)nc-2cc(O)n1CCc1cccs1`, the IC50 is 3.98 µM.

`CCOC(=O)C1=C(C)N=c2sc(=Cc3ccc(OCC(=O)O)cc3)c(=O)n2C1c1ccc(F)cc1` (stereo not drawn): the IC50 is 36.1 µM.

Regarding `Cc1c2c(=O)n(-c3nc4ccccc4s3)nc-2cc(O)n1Cc1ccc(F)cc1`, the IC50 was 3.89 µM. With `CS(=O)(=O)C1=NSC2=NC(=O)/C(=C\c3cccn3-c3ccc(Br)cc3)C(=N)N21` the figure was 43.5 µM; with `CS(=O)(=O)C1=NSC2=NC(=O)/C(=C\c3cccn3-c3cccc(F)c3)C(=N)N21`, 38.9 µM; with `CS(=O)(=O)C1=NSC2=NC(=O)/C(=C\c3cccn3-c3ccc(Cl)c(Cl)c3)C(=N)N21`, 42.1 µM.
